Patent US20030211942A1, “Aryl sulfonyl amino carbonyl triazole based selective herbicides” (priority 2000, published 2003)
Where “and” joins values, the source holds several entries; their conditions need not be identical. Identical values can stand only once.

Experiments:
Assay in all cases: Post-emergence/greenhouse herbicidal test
Type in all cases: in vivo
Bromus secalinus = conditions: post-emergence, about 3 weeks
From the text: (§1) Procarbazone- and flucarbazone-sodium were used as 70 WG formulation. Fenoxaprop-P-ethyl was used in a mixture with mefenpyr-diethyl (75 g of mefenpyr-diethyl/l) as Ralon® Super 69 EW. Cinidon-ethyl and florasulam and iodosufuron in a mixture with mefenpyr-diethyl were used in the form of the finished formulations Lotus® 200 EC, Primus® 50 SC and Hussar® 5 WG (15% mefenpyr-diethyl), respectively. Amicarbazone was used as 70 WG formulation.
(§2) In pre- and post-emergence experiments, the spray liquor is usually admixed with a surfactant (Renex 36), at a concentration of 0.1%.
(§3) Test plants are grown under controlled conditions (temperature and light).
(§4) Following the spray application, the plant containers are kept in a greenhouse under constant light and temperature conditions.
(§5) After about 3 weeks, the degree of damage to the plants is rated in % damage in comparison to the development of the untreated control.
(§6) 0% =no damage (like untreated control)
(§7) 100% =total destruction/damage

Alopecurus myosuroides = conditions: post-emergence, about 3 weeks
From the text: as §1, §2, §3, §4, §5, §6, §7

Lolium perenne = conditions: post-emergence, about 3 weeks
From the text: as §1, §2, §3, §4, §5, §6, §7

Viola arvensis = conditions: post-emergence, about 3 weeks
From the text: as §1, §2, §3, §4, §5, §6, §7

Polygonum convolvolus = conditions: post-emergence, about 3 weeks
From the text: as §1, §2, §3, §4, §5, §6, §7

Xanthium strumarium = conditions: post-emergence, about 3 weeks
From the text: as §1, §2, §3, §4, §5, §6, §7

Cassia tora = test system: Cassia tora
From the text: as §1, §2, §3, §4, §5, §6, §7

Eriochloa villosa = conditions: 60 g of ai/ha, post-emergence, about 3 weeks
From the text: as §1, §2, §3, §4, §5, §6, §7

Stellaria media = conditions: post-emergence, about 3 weeks
From the text: as §1, §2, §3, §4, §5, §6, §7

Echinochloa crus-galli = test system: Echinochloa crus-galli
From the text: as §1, §2, §3, §4, §5, §6, §7

Matricaria inodora = test system: Matricaria inodora
From the text: as §1, §2, §3, §4, §5, §6, §7

Galium aparine = conditions: post-emergence, about 3 weeks
From the text: as §1, §2, §3, §4, §5, §6, §7

Chenopodium album = conditions: post-emergence, about 3 weeks
From the text: as §1, §2, §3, §4, §5, §6, §7

Veronica persicaria = conditions: 60 g of ai/ha, post-emergence, about 3 weeks
From the text: as §1, §2, §3, §4, §5, §6, §7

Amaranthus retroflexus = conditions: post-emergence, about 3 weeks
From the text: as §1, §2, §3, §4, §5, §6, §7

Abutilon theophrasti = conditions: post-emergence, about 3 weeks
From the text: as §1, §2, §3, §4, §5, §6, §7

Digitaria sanguinalis = conditions: post-emergence, about 3 weeks
From the text: as §1, §2, §3, §4, §5, §6, §7

Datura strumarium = conditions: post-emergence, about 3 weeks
From the text: as §1, §2, §3, §4, §5, §6, §7

Avena fatua = test system: Avena fatua
From the text: as §1, §2, §3, §4, §5, §6, §7

[1] = 15 g of ai/ha, post-emergence, about 3 weeks
[2] = 30 g of ai/ha, post-emergence, about 3 weeks
[3] = 60 g of ai/ha, post-emergence, about 3 weeks

COc1nn(C(=O)NS(=O)(=O)c2ccccc2OC(F)(F)F)c(=O)n1C [Flucarbazone-sodium, 2-(2-trifluoromethoxy-phenylsulphonylaminocarbonyl)-4-methyl-5-methoxy-2,4-dihydro-3H-1,2,4-triazol-3-one]
Bromus secalinus observed (Bromus secalinus; 15 g of ai/ha): 70%
Bromus secalinus observed (Bromus secalinus; 30 g of ai/ha): 70% and 90%
Bromus secalinus observed (Bromus secalinus; 60 g of ai/ha): 80% and 90%
Alopecurus myosuroides observed (Alopecurus myosuroides; 15 g of ai/ha): 70%
Alopecurus myosuroides observed (Alopecurus myosuroides; 30 g of ai/ha): 70%
Alopecurus myosuroides observed (Alopecurus myosuroides; 60 g of ai/ha): 70%
Lolium perenne observed (Lolium perenne; 15 g of ai/ha): 80%
Lolium perenne observed (Lolium perenne; 30 g of ai/ha): 90%
Lolium perenne observed (Lolium perenne; 60 g of ai/ha): 90%
Viola arvensis observed (Viola arvensis; 15 g of ai/ha): 60% and 50% and 80%
Viola arvensis observed (Viola arvensis; 30 g of ai/ha): 50%
Viola arvensis observed (Viola arvensis; 60 g of ai/ha): 50%
Polygonum convolvolus observed (Polygonum convolvolus; 15 g of ai/ha): 60%
Polygonum convolvolus observed (Polygonum convolvolus; 30 g of ai/ha): 70%
Polygonum convolvolus observed (Polygonum convolvolus; 60 g of ai/ha): 70%
Xanthium strumarium observed (Xanthium strumarium; 15 g of ai/ha): 20%
Xanthium strumarium observed (Xanthium strumarium; 30 g of ai/ha): 40%
Xanthium strumarium observed (Xanthium strumarium; 60 g of ai/ha): 60%
Cassia tora observed (Cassia tora; [1]): 50%
Cassia tora observed (Cassia tora; [2]): 50%
Cassia tora observed (Cassia tora; [3]): 50%
Cassia tora observed (Cassia tora; application rate 15 g ai/ha): 0
Eriochloa villosa observed (Eriochloa villosa): 70%
Stellaria media observed (Stellaria media; 15 g of ai/ha): 0%
Stellaria media observed (Stellaria media; 30 g of ai/ha): 60%
Stellaria media observed (Stellaria media; 60 g of ai/ha): 95%
Echinochloa crus-galli observed (Echinochloa crus-galli; [1]): 50%
Echinochloa crus-galli observed (Echinochloa crus-galli; [3]): 90%
Echinochloa crus-galli observed (Echinochloa crus-galli; application rate 15 g ai/ha): 60
Echinochloa crus-galli observed (Echinochloa crus-galli; application rate 30 g ai/ha): 70
Echinochloa crus-galli observed (Echinochloa crus-galli; application rate 60 g ai/ha): 90
Matricaria inodora observed (Matricaria inodora; [3]): 20%
Matricaria inodora observed (Matricaria inodora; application rate 15 g ai/ha): 20
Matricaria inodora observed (Matricaria inodora; application rate 30 g ai/ha): 60
Matricaria inodora observed (Matricaria inodora; application rate 60 g ai/ha): 60
Galium aparine observed (Galium aparine; 15 g of ai/ha): 0%
Galium aparine observed (Galium aparine; 30 g of ai/ha): 0%
Galium aparine observed (Galium aparine; 60 g of ai/ha): 0%
Chenopodium album observed (Chenopodium album; 15 g of ai/ha): 50%
Chenopodium album observed (Chenopodium album; 30 g of ai/ha): 50%
Chenopodium album observed (Chenopodium album; 60 g of ai/ha): 70%
Veronica persicaria observed (Veronica persicaria): 0%
Amaranthus retroflexus observed (Amaranthus retroflexus; 15 g of ai/ha): 90%
Amaranthus retroflexus observed (Amaranthus retroflexus; 30 g of ai/ha): 90%
Amaranthus retroflexus observed (Amaranthus retroflexus; 60 g of ai/ha): 90%
Abutilon theophrasti observed (Abutilon theophrasti; 15 g of ai/ha): 0%
Abutilon theophrasti observed (Abutilon theophrasti; 30 g of ai/ha): 0%
Abutilon theophrasti observed (Abutilon theophrasti; 60 g of ai/ha): 0%
Digitaria sanguinalis observed (Digitaria sanguinalis; 30 g of ai/ha): 20%
Digitaria sanguinalis observed (Digitaria sanguinalis; 60 g of ai/ha): 20%
Datura strumarium observed (Datura strumarium; 15 g of ai/ha): 70%
Datura strumarium observed (Datura strumarium; 60 g of ai/ha): 80%
Avena fatua observed (Avena fatua; [1]): 80%
Avena fatua observed (Avena fatua; [2]): 90%
Avena fatua observed (Avena fatua; [3]): 90%
Avena fatua observed (Avena fatua; Table B-62, application rate 15 g ai/ha): 80
Avena fatua observed (Avena fatua; application rate 15 g ai/ha): 70
Avena fatua observed (Avena fatua; application rate 30 g ai/ha): 70
Avena fatua observed (Avena fatua; application rate 60 g ai/ha): 70
